The results in this text go back to paper PMC4043446 (Arteriosclerosis, thrombosis, and vascular biology, 2013).

This assay concerns LPS-challenged mice. In words: LPS-induced mortality in mouse endotoxemia model. The conditions noted are these: 5 mg/kg retro-orbital prior to i.p. LPS; 10 mice/group; Kaplan-Meier. Format: in vivo, C57BL/6 mice.

In the case of Integrilin, the “LPS-induced mortality (Integrilin)” value is “showed a trend in reducing”.
